Test results: the NIST ThermoML archive (doi:10.1016/j.jct.2016.02.009)
Numbers after ± are expanded uncertainties.

Experiment: molar heat capacity at constant pressure
Settings: 101.33 kPa, Small (less than 1 g) adiabatic calorimetry

CCCCCCCCCCCCCCCCn1cc[n+](C)c1.O=S(=O)([N-]S(=O)(=O)C(F)(F)F)C(F)(F)F
Settings | molar heat capacity at constant pressure [J/K/mol]
240 K, Crystal 2 | 635.6 ± 3.2
240.65 K, Crystal 2 | 637.6 ± 3.2
242.87 K, Crystal 2 | 643.5 ± 3.2
245.08 K, Crystal 2 | 650 ± 3.3
247.28 K, Crystal 2 | 657 ± 3.3
249.47 K, Crystal 2 | 663.5 ± 3.3
250 K, Crystal 2 | 665.4 ± 3.4
251.67 K, Crystal 2 | 671.1 ± 3.4
253.85 K, Crystal 2 | 678.2 ± 3.4
256.03 K, Crystal 2 | 685.8 ± 3.4
258.19 K, Crystal 2 | 693.5 ± 3.5
260 K, Crystal 2 | 700.6 ± 3.5
260.35 K, Crystal 2 | 701.7 ± 3.5
262.5 K, Crystal 2 | 710.5 ± 3.6
264.64 K, Crystal 2 | 719.9 ± 3.6
266.77 K, Crystal 2 | 729.9 ± 3.7
268.89 K, Crystal 2 | 740.5 ± 3.7
270 K, Crystal 2 | 745.5 ± 3.8
271 K, Crystal 2 | 751.1 ± 3.8
273.1 K, Crystal 2 | 761.1 ± 3.8
275.18 K, Crystal 2 | 773.4 ± 3.9
277.25 K, Crystal 2 | 786.9 ± 3.9
279.3 K, Crystal 2 | 801 ± 4
280 K, Crystal 2 | 806.6 ± 4
281.34 K, Crystal 2 | 816.9 ± 4.1
283.37 K, Crystal 2 | 834.5 ± 4.2
285.38 K, Crystal 2 | 853.3 ± 4.3
287.36 K, Crystal 2 | 875.7 ± 4.4
289.32 K, Crystal 2 | 901.5 ± 4.5
290 K, Crystal 2 | 909.7 ± 4.5
291.26 K, Crystal 2 | 930.9 ± 4.7
293.07 K, Crystal 2 | 958.5 ± 4.8
293.16 K, Crystal 2 | 965 ± 4.8
293.61 K, Crystal 2 | 968.5 ± 4.8
294.12 K, Crystal 2 | 978.5 ± 4.9
294.63 K, Crystal 2 | 990.3 ± 5
295.02 K, Crystal 2 | 1004 ± 5
295.14 K, Crystal 2 | 1002 ± 5
295.64 K, Crystal 2 | 1014 ± 5
296.14 K, Crystal 2 | 1027 ± 5
296.64 K, Crystal 2 | 1039 ± 5
296.85 K, Crystal 2 | 1050 ± 5
297.14 K, Crystal 2 | 1053 ± 5
297.63 K, Crystal 2 | 1068 ± 5
298.11 K, Crystal 2 | 1082 ± 5
298.15 K, Crystal 2 | 1084 ± 5
298.6 K, Crystal 2 | 1098 ± 6
298.63 K, Crystal 2 | 1103 ± 6
299.08 K, Crystal 2 | 1113 ± 6
299.55 K, Crystal 2 | 1129 ± 6
300 K, Crystal 2 | 1146 ± 6
300.03 K, Crystal 2 | 1146 ± 6
300.36 K, Crystal 2 | 1161 ± 6
300.49 K, Crystal 2 | 1161 ± 6
300.96 K, Crystal 2 | 1177 ± 6
301.42 K, Crystal 2 | 1193 ± 6
301.88 K, Crystal 2 | 1207 ± 6
302.1 K, Crystal 2 | 1219 ± 6
302.34 K, Crystal 2 | 1222 ± 6
302.79 K, Crystal 2 | 1235 ± 6
303.24 K, Crystal 2 | 1248 ± 6
303.69 K, Crystal 2 | 1253 ± 6
303.84 K, Crystal 2 | 1262 ± 6
304.13 K, Crystal 2 | 1267 ± 6
304.58 K, Crystal 2 | 1271 ± 6
305.02 K, Crystal 2 | 1273 ± 6
305.47 K, Crystal 2 | 1274 ± 6
305.5 K, Crystal 1 | 1274 ± 6
305.5 K, Crystal 2 | 1274 ± 6
305.56 K, Crystal 1 | 1278 ± 6
305.91 K, Crystal 1 | 1275 ± 6
306.36 K, Crystal 1 | 1271 ± 6
306.8 K, Crystal 1 | 1269 ± 6
307.24 K, Crystal 1 | 1268 ± 7
307.28 K, Crystal 1 | 1272 ± 7
307.69 K, Crystal 1 | 1266 ± 6
308.14 K, Crystal 1 | 1261 ± 6
308.58 K, Crystal 1 | 1257 ± 6
309.01 K, Crystal 1 | 1254 ± 6
309.03 K, Crystal 1 | 1251 ± 6
309.48 K, Crystal 1 | 1242 ± 6
309.93 K, Crystal 1 | 1229 ± 6
310 K, Crystal 1 | 1229 ± 6
310.39 K, Crystal 1 | 1187 ± 7
310.81 K, Crystal 1 | 1097 ± 18
310.86 K, Crystal 1 | 1054 ± 18
311.36 K, Crystal 1 | 989.7 ± 5.1
311.88 K, Crystal 1 | 984.4 ± 4.9
312.39 K, Crystal 1 | 986.1 ± 4.9
312.73 K, Crystal 1 | 995.5 ± 5
312.9 K, Crystal 1 | 992 ± 4.9
313.41 K, Crystal 1 | 997.9 ± 5
313.91 K, Crystal 1 | 1011 ± 5
314.42 K, Crystal 1 | 1032 ± 5
314.68 K, Crystal 1 | 1051 ± 5
316.51 K, Crystal 1 | 1261 ± 7
319.25 K, Crystal 1 | 1044 ± 5
319.25 K, Liquid | 972 ± 5
320 K, Liquid | 972 ± 5
320.76 K, Liquid | 972.6 ± 4.8
321.02 K, Liquid | 972.6 ± 4.8
322.55 K, Liquid | 974.4 ± 4.9
322.92 K, Liquid | 974.4 ± 4.9
324.34 K, Liquid | 976.2 ± 4.9
324.82 K, Liquid | 975.6 ± 4.9
326.13 K, Liquid | 977.9 ± 4.9
326.72 K, Liquid | 977.3 ± 4.9
327.92 K, Liquid | 978.5 ± 4.9
328.62 K, Liquid | 979.7 ± 4.9
329.71 K, Liquid | 980.3 ± 4.9
330 K, Liquid | 981 ± 5
330.52 K, Liquid | 981.4 ± 4.9
331.5 K, Liquid | 982 ± 4.9
332.43 K, Liquid | 982.6 ± 4.9
333.29 K, Liquid | 983.8 ± 4.9
334.33 K, Liquid | 984.4 ± 4.9
335.08 K, Liquid | 985.6 ± 4.9
336.23 K, Liquid | 986.1 ± 4.9
336.87 K, Liquid | 986.7 ± 4.9
338.13 K, Liquid | 988.5 ± 4.9
338.66 K, Liquid | 989.1 ± 4.9
340 K, Liquid | 990 ± 5
340.03 K, Liquid | 990.3 ± 4.9
340.45 K, Liquid | 990.3 ± 4.9
341.93 K, Liquid | 991.4 ± 4.9
342.24 K, Liquid | 992 ± 4.9
343.84 K, Liquid | 993.8 ± 5
344.04 K, Liquid | 993.2 ± 4.9
345.74 K, Liquid | 995 ± 5
345.83 K, Liquid | 995 ± 5
347.62 K, Liquid | 997.3 ± 5
347.64 K, Liquid | 996.7 ± 5
349.41 K, Liquid | 998.5 ± 5
349.55 K, Liquid | 999.7 ± 5
350 K, Liquid | 1000 ± 5
351.2 K, Liquid | 1000 ± 5
351.45 K, Liquid | 1001 ± 5
353 K, Liquid | 1003 ± 5
353.35 K, Liquid | 1003 ± 5
354.79 K, Liquid | 1004 ± 5
355.25 K, Liquid | 1006 ± 5
356.58 K, Liquid | 1007 ± 5
357.16 K, Liquid | 1007 ± 5
358.37 K, Liquid | 1009 ± 5
359.06 K, Liquid | 1009 ± 5
360 K, Liquid | 1010 ± 5
360.16 K, Liquid | 1011 ± 5
360.96 K, Liquid | 1011 ± 5
361.95 K, Liquid | 1013 ± 5
362.86 K, Liquid | 1013 ± 5
363.74 K, Liquid | 1014 ± 5
364.75 K, Liquid | 1015 ± 5
365.52 K, Liquid | 1016 ± 5
366.65 K, Liquid | 1018 ± 5
367.31 K, Liquid | 1018 ± 5
368.55 K, Liquid | 1020 ± 5
370 K, Liquid | 1022 ± 5
